Data on one molecule can be found in paper PMC5815658 (Journal of Medicinal Chemistry, 2017).

The term half-life denotes the time in which the quantity being followed falls by half. Read a high half-life as slow loss. By chromatographic logD is commonly meant lipophilicity estimated from chromatographic retention. A low value points to a more hydrophilic compound. As a reminder, the kinetic solubility is solubility judged after dilution from a stock solution rather than from solid. As usually defined, the Kd is the concentration at which binding is half-saturated. A low value points to tighter binding.

The target in data set [1] is T1, pirin protein in SK-OV-3 human ovarian cancer cells (Homo sapiens, UniProt O00625).
T1 construct: endogenous in cells; host or cells: SK-OV-3
T1 sequence (O00625 1-290): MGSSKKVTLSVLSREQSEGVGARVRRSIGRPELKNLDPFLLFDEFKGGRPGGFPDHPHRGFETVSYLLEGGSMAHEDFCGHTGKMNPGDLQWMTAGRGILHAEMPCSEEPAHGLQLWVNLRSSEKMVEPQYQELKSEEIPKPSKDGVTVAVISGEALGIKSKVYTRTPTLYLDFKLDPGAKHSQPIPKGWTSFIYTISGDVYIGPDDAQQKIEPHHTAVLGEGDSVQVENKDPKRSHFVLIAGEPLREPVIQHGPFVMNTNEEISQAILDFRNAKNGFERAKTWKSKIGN
Briefly: Pirin depletion in SK-OV-3 cells (immunoblot / capillary electrophoresis immunoassay). The format is cell-based. The note with it: SK-OV-3 cells. The procedure: in vivo in athymic mice to increase its tumorigenicity and reliability as a xenograft, and used within 10 passages of banked stocks.
Prior to use, the cells were analyzed by short tandem repeat (STR) profiling. Polymorphic STR loci were amplified using a polymerase chain reaction (PCR) primer set. The PCR product (each locus being labelled with a different fluorophore) was analyzed simultaneously with size standards using automated fluorescent detection. The number of repeats at 10 different loci (as recommended by the American Type Culture Collection, ATCC) was used to define the STR profile and this was cross-referenced with online databases to confirm authenticity. […]
the ATCC reference line (LGC Promochem, UK). […]
nested PCR protocol (Venor GeM kit, Minerva Biolabs, Germany). Cells were grown in DMEM/10 % FCS, 2 mM glutamine and nonessential amino acids in 5 % CO2.
SK-OV-3 cells were treated as for each experimental condition. Cells were harvested and lysed by scraping in urea lysis buffer (20 mM HEPES pH 8.0, 9 M urea, 1 mM sodium orthovanadate, 2.5 mM sodium pyrophosphate, 1 mM β-glycerophosphate). […]
of samples was determined using a bicinchoninic acid (BCA) protein assay kit (Thermo Fisher Scientific). Western blotting was carried out as previously described.10 Pirin and GAPDH antibodies were obtained from Abcam (ab157212) and Merck […]
Samples were treated, harvested and lysed as described above. A total of 5 μL of 0.2 mg/mL protein was loaded into plates and capillary western analysis was carried out according to the manufacturer’s instructions (ProteinSimple WES). The data was analyzed with the Compass software (ProteinSimple).
Sigma-Aldrich and Cell Signaling Technology, respectively.
10 Sharp SY, Boxall K, Rowlands M, Prodromou C, Roe SM, Maloney A, Powers M, Clarke PA, Box G, Sanderson S, Patterson L, Matthews TP, Cheung KM, Ball K, Hayes A, Raynaud F, Marais R, Pearl L, Eccles S, Aherne W, McDonald E, Workman P. In vitro biological characterization of a novel, synthetic diaryl pyrazole resorcinol class of heat shock protein 90 inhibitors.

Data set [2] in a line: PDP aqueous stability protocol. The note with it: 37 °C.
Description: PDP Aqueous Stability Protocol.
1) Using 1000 µL pipette, dispense 990 µL of pH 7.4 PBS buffer into a 1.5 mL micro centrifuge tube. Using 10 µL pipette,
add 10 µL of a freshly prepared 10 mM compound DMSO stock solution into the PBS buffer.
2) Mix for 5 seconds on vortex mixer to create 100 µM stock solution.
3) Agitate 100 µM stock solution (500 rpm, Bohdan Shaker) for 120 minutes at room temperature and the centrifuge for 15
4) Using a 1000 µL pipette approx. 700 µL was carefully decanted from the micro centrifuge tube and put into a vial to
5) To produce a t = 0 sample; using a 200 µL pipette, 50 µL of DMSO was dispensed into insert vial. Then, using a 200 µL
pipette, 200 µL from solution A was added into the insert vial and vortexed for 5 seconds to produce a sample for HPLC
6) The vial containing solution A was then warmed to 37 °C, with stirring, and aliquots were taken at regular time intervals
using the same procedure as described in step 5.
Assuming first-order decay:
Data set [3] can be described thus: LogD7.4 determination by RP-HPLC. The note with it: pH 7.4.
Description: Kinetic Solubility Determination
(§1) Kinetic Solubility values were determined via an in-house RP-HPLC method. Calibration standards were prepared at a
(§2) concentration of 100 M in 100 % DMSO. Calibration was achieved by injecting 0.5, 2.5 and 5 L of the 100 M standard.
The supernatant was removed and a small
(§3) volume of DMSO was added to ensure the compound remained in solution. Kinetic solubility values were determined by
(§4) substituting the AUC (Area Under the Curve) of the kinetic solubility samples into the equation obtained from the linear part of
(§5) Injections (with needle wash) of the calibration and kinetic solubility samples were made onto a Phenomenex Kinetex C18
(§6) column (5 µm, 50 mm x 4.6 mm, 100A, Phenomenex, Torrence, USA). Chromatographic separation at 30 °C was carried out
(§7) modified with 0.1 % formic acid) at a flow rate of 1.5 mL/min.
(§8) array detector (Agilent, Santa Clara, USA). Raw data was processed using Agilent Chemstation Rev.C.01.05.8. The data was then […]
(§9) LogD7.4 values were determined via an in-house RP-HPLC method based on previous work by Kerns and Di.4 Calibration was […]
(§10) by comparing HPLC-determined Log D7.4 values of two other commercially-available drugs with literature Log D7.4 values. […]
(§11) HPLC Log D7.4 values of in-house compounds were determined by substituting the compounds’ retention times into the equation […]
The target of data set [4] is T2, pirin (Homo sapiens, UniProt O00625).
T2 sequence (O00625 1-290): T1 sequence (O00625 1-290)
As to the kind of experiment: TMT MS2 whole proteome mass spectrometry in SK-OV-3 cells. Format: cell-based. Set-up: endogenous in cells; host or cells: SK-OV-3. The note with it: 50 nM, 4 h. The procedure: PDP 16 Quantified Mass Spectrometry in SK-OV-3 Cells
SK-OV-3 cells (enough to yield 50μg total protein per sample) treated with DMSO control or 50nM PDP 16 for 4 h. Cells were then harvested and lysed by scraping in urea lysis buffer (20mM HEPES pH 8.0, 9M urea, 1mM sodium orthovanadate, 2.5mM sodium pyrophosphate, 1mM β-glycerophosphate). Samples were sonicated and cent rifuged at 20,000 x g for 15 min and the protein extract (supernatant) collected . The experiment was performed in triplicates. The protein extract samples (supernatant) were then sent to www.proteomics.com, (Accessed September 7, 2017) for analysis.
Proteome Sciences’ proprietary TMT®MS2 workflow was applied for the analysis of total proteomic protein expression. In addition, Proteome Sciences’ bioinformatics tools were applied for data normalization, data integration and statistical analysis .
We identified 107318 unique peptides and 8 785 unique protein groups. This coverage of the proteome is within our normal range for peptide and protein identifications in cell line samples. […]
component analysis (PCA) plots explaining ~64% o f the variance of statistically significant features at peptide level. This observation was consistent with the result at protein level.
Using Proteome Sciences’ proprietary TMT®MS2 workflow on a cohort of SK-OV-3 cell line samples derived from ICR’s pirin degradation probe (n=3) and DMSO control (n=3). A reference sample was created from pooling the other samples.
PAGE confirming a good sample quality. Thus, all samples were processed following TMT®MS2 workflow.
All LC-MS/MS runs passed internal quality assessments, based on total ion counts (TICs) and number of peptide spectral matches (PSMs), considering the MS method to be used for data acquisition. Labelling efficiency was over 98.5% across all fractions.
TMT®MS2 identified 8785 unique protein groups from 107318 unique peptide sequences. This is within the typical range of protein and peptide identifications from cell line samples.
Total Peptide Spectral Match: 316215
Total Unique Peptide Sequences: 107318
Total Unique Protein IDs: 8785
Median Standard Deviation and Inter Quartile Range (IQR) were measured for each sample. […]
Protein solutions of SK -OV-3 cell line samples derived from ICR’s pirin degradation probe (n=3) and DMSO control (n=3) were provided in 9M urea 20 mM HEPES, 1 mM activated sodium orthovanadate, 2.5 mM sodium pyrophosphate, 1 mM b-glycerol-phosphate at pH 8.0. […] The protein concentration of the supernatant was determined by Bradford protein assay and each sample visualized by Coomassie stained (Imperial Stain, Pierce) SDS-PAGE 4-20% gradient gels (Criterion, Biorad) using 10 µg of each sample. […]

A short description of data set [5]: Kinetic solubility determination by RP-HPLC. The note with it: PBS, pH 7.4, aqueous buffer, kinetic from dmso stock.
Description: Kinetic Solubility Determination
as §1, §2
The supernatant was removed and a small
as §3, §4, §5, §6, §7, §8, §9, §10, §11
Data set [6] addresses T2, pirin. As to the kind of experiment: Pirin SPR (surface plasmon resonance) binding. A general note: Surface plasmon resonance follows binding to a sensor surface in real time, without labels.
Description: 9 All surface plasmon resonance (SPR) experiments were carried out on a Biacore T100
enhanced to T200 sensitivity (GE Life Scienc es, Amersham Place, UK). Amine coupling chemistry was used to immobilize the
pirin protein on a research grade CM5 sensor chip. The running buffer used in the immobilization step consisted of 1 x phosph ate
using a 1:1 mixture of 100 mM N-hydroxysuccinimide and 400 mM 1 -ethyl-3-(3-dimethylaminopropyl)-carbodiimide. Pirin was
No. T6205) added to provide protection for the active site lysines. The reaction was monitored in real time and stopped when a
target immobilization level of ~5000RU was obtained. Finally, the surfa ce was blocked via an injection of 1 M ethanolamine at
pH 8.5 for 7 min. The flow rate was maintained at 10 µL/min for all the above procedures. Flow cell one was left unmodified a nd
used as the reference surface.
Following protein immobilization, the run ning buffer was changed to 1 x phosphate buffered saline containing 0.05 % (v/v)
polypropylene V-bottomed plates (Greiner, Stonehouse, UK), which became the sample plates for the SPR. For each compound,
an eight-point dose response experiment was carried out, usi ng a concentration range suitable for the estimated pK D, in a buffer
mix compatible with the Biacore running buffer. The experiments were performed at a flow rate of 30 µL/min, a sample injectio n
time of 90 seconds and a dissociation time of 200 seconds. The CM5 surface was not regenerated between sample injections.
The response units for the equilibrium analysis were measured 4 seconds prior to the end of the injection time. pK D values were
determined from analysis of the background normalized binding curv e generated from the sensorgrams, under equilibrium
as the geometric mean±standard error of the mean (SEM) from three independ ent measurements. The ratio of experimental to

Values after ≈ are worked out from the molar mass of the structure shown.

Turning to `O=C1CCC(N2C(=O)c3cccc(OCCOCCOCCN4CCN(Cc5ccc6cc(C(=O)Nc7cc(NC(=O)c8ccc9c(c8)OCCO9)ccc7Cl)ccc6n5)CC4)c3C2=O)C(=O)N1` (centres unmarked) [PDP 16, N-(2-Chloro-5-(2,3-dihydrobenzo[b][1,4]dioxine-6-carboxamido)phenyl)-2-((4-(2-(2-(2-((2-(2,6-dioxopiperidin-3-yl)-1,3-dioxoisoindolin-4-yl)oxy)ethoxy)ethoxy)ethyl)piperazin-1-yl)methyl)quinoline-6-carboxamide], in data set [1] (50 nM, 2 h exposure, Figure 3A), the Pirin degradation entry is recorded as “near complete pirin degradation”. In addition, the “Concentration-response shape with increasing concentration” value in data set [1] (50 to 1500 nM, up to 24 h) is “clear hook effect”. Further, the “Lowest concentration with pirin degradation activity” value in data set [1] (2 h exposure, Figure 3B) is given as 0.5 nM. For the same molecule, the “First-order decay rate constant” value in data set [2] (pH 7.4 PBS, n=2, Figure S1) was determined as 0.0038 min⁻¹. In addition, the “Half-life (aqueous stability)” value in data set [2] (pH 7.4 phosphate buffer) was around 3 h. For the same molecule, the half-life at 100 µM in data set [2] (phosphate buffer (PBS), pH 7.4, Half-life (aqueous stability), pH 7.4 phosphate buffer) is 3 h. Moreover, the chromatographic logD in data set [3] is 2.7. Also, the “Proteins with statistically significant (p(adj) < 0.05) difference in expression” value at pirin [4] (8547 quantifiable proteins) is recorded as “only pirin”. Further, at pirin [4] (TMT), the “P.Value pirin (PIR, O00625), PDP vs Veh” value was determined as 1.64E-08; the “Reduction of pirin protein expression vs vehicle” value stood at 2.3 fold; the “logFC pirin (PIR, O00625), PDP vs Veh” value is listed as -1.208. Also, in data set [5], the solubility (kinetic) at 120 min was 2 µM (≈ 1.89 µg/mL). The molecule also showed a dissociation constant (Kd) at pirin [6] (Pirin SPR KD, equilibrium analysis, one site specific binding model, geometric mean n = 3) of 55 nM. Also, on pirin [6] (Pirin SPR KD, representative single repeat, best-fit value, one site specific binding), the Kd was 56.3 nM. On pirin [6] (Pirin SPR pKD, mean of 3 values (unrounded), column statistics), binding was put at a Kd of 54.5 nM. For the same molecule, on pirin [6] (SPR), the “Increase in affinity for recombinant pirin compared to PDP 10” value turned out to be 4.2 fold and the “Measured Rmax/Theoretical Rmax” value is recorded as 0.39.
